Laboratory results: a melting point compilation (Tetko et al.; mined from patent text by program, amines drawn as free bases though some values may be those of a salt)

| melting point [°C] | Compound |
| --- | --- |
| 144 to 146 | Cc1cccc(C)c1NC(=O)c1ccc(S(C)=O)cc1 (centres undefined) |
| 141 to 143 | O=C(C1CCCCC1)C1CCN(S(=O)(=O)c2ccccc2)CC1 |
| 304 to 305 | CC1=Nc2cc(Cl)c(S)cc2S(=O)(=O)N1 |
| 118 to 119 | O=C(O)CCc1cnoc1-c1ccc(F)c(Cl)c1 |
| 300 | O=C(NN=Cc1ccc([N+](=O)[O-])o1)c1ncn2ccccc12 |
| 115 to 117 | CCCCN1C(=O)N(C2CCN(CC3CCCCC3)CC2)C(c2ccccc2)c2ccccc21 (centres undefined) |
| 103 to 106 | CSCCCCC(c1cc(F)ccc1F)S(=O)(=O)c1ccc(Cl)cc1 (centres undefined) |
| 134 to 136 | COc1ccc(CNc2n[nH]cc2C(=O)O)cc1OC1CCCC1 |
| 90 | CN(C)C(=O)n1cc(C(=O)C2CSC(c3cccnc3)N2C=O)c2ccc(OCc3ccccc3)cc21 (centres undefined) |
| 125 to 126 | CCOc1nn(-c2ccc(C(F)(F)F)cn2)cc1CCCOc1cc(CC(=O)O)cc(OC)c1 |
| 177 to 180 | CC(=O)Nc1ccc(C=CC(=O)N2CCc3c([nH]c4ccccc34)C2c2ccccc2)cc1 (centres undefined) |
| 126 to 127 | CC(C)(C)OC(=O)CC1CCNC(=O)c2ccccc21 (centres undefined) |
| 220 to 222 | O=CCN1C=C(C(=O)O)Cc2cc(F)c(F)c(F)c21 |
| 116 to 118 | COc1cccc(Cc2cc(OC)ccc2O)c1 |
| 177 to 180 | Cc1noc(NS(=O)(=O)c2cccc3c(NC(=O)C(C)C)cccc23)c1C |
| 170 to 172 | Cn1cnc(COc2nn3c(-c4ccccc4F)nnc3cc2C23CCC(C2)C3)n1 |
| 189 to 190 | COc1ccc2sc3nc(CO)cn3c2c1 |
| 235 to 237 | O=C(Nc1n[nH]c(=S)s1)N[C@@H](Cc1ccccc1)C(=O)N1CCN(c2ncccn2)CC1 |
| 120 to 125 | O=C1C(=Cc2ccccc2)c2ccccc2N1C1=NCCS1 |

| melting point [°C] | Compound |
| --- | --- |
| 109 to 110 | CCOC(=O)/C=C/c1ccc(OCCOC)cc1OCc1nc(-c2ccccc2)oc1C |
| 107 | O=c1[nH]c(=O)n(C2CC(F)C(CO)O2)cc1C(Br)=CI (centres undefined) |
| 92 to 93 | O=C1SCCN1Cc1ccccc1[N+](=O)[O-] |
| 77.7 to 78.5 | C=CC(C)(C)OC(=O)c1c(C)nc2c(cnn2CCCCC)c1N |
| 146 to 148 | COC(=O)CNC(=O)c1ccc(NS(=O)(=O)c2ccc(F)cc2)cn1 |
| 60.5 to 60.9 | COc1ccc(Br)cc1CC#N |
| 192 to 193 | CCn1cnc2cc(C(F)(F)F)c(Cl)c(N)c21 |
| 164 to 166 | Nc1cc(C(F)(F)F)ccc1-c1cc2ccccc2[nH]1 |
| 195 to 196 | NCC(=O)Nc1ccc(S(=O)(=O)c2cccc(Cl)c2)cc1 |
| 183 to 185 | CCOC(=O)C(Cc1ccc(-c2ccc([N+](=O)[O-])cc2)o1)(NC(C)=O)C(=O)OCC |
| 209 to 212 | CC(Cn1ncnn1)n1nnc2cc3c(=O)n(CC#N)nnc3cc2c1=O (centres undefined) |
| 203 | c1ccc(COc2ccc3nc(-c4ccc(C56CC7CC(CC(C7)C5)C6)c(OCc5ccccc5)c4)[nH]c3c2)cc1 |
| 247 | CC12CCC(C(=O)O)=CC1=CCC1C2CCC2(C)C(C(=O)CCC3CCCCC3)CCC12 (centres undefined) |
| 185 to 190 | Cc1c(C)c(C)c(C2C(=O)Oc3c2cc(C(C)(C)C)cc3C(C)(C)C)c(C)c1C (centres undefined) |
| > 250 | O=Cc1c[nH]c2c1ccc1c3cc([N+](=O)[O-])ccc3[nH]c12 |
| 95 to 100 | COc1ccc2c(c1)c(-c1cc3nccnc3[nH]1)cn2CCCN |
| 115 to 117 | COC(=O)COc1ccc(C2C(=O)Oc3c2cc(C(C)(C)C)cc3C(C)(C)C)cc1 (centres undefined) |
| 175 to 184 | COc1ccc(Nc2ccc(Nc3ccnc4cc(-c5cccc([N+](=O)[O-])c5)sc34)cc2)cc1 |
| 165 to 166 | Clc1ccc(C=NN=c2ccn(-c3ccc(Cl)cc3)cc2)cc1 |

| Compound | melting point [°C] |
| --- | --- |
| CSC(=N[N+](=O)[O-])NCc1ccccc1 | 77 to 80 |
